Measurements from paper PMC3914206.

Tests used:
Assay in all cases: KiNativ chemical proteomics profiling in HeLa and PC3 cell lysates
Assay type in all cases: binding
[1] = molecular target: T1, selected panels of kinases in HeLa and PC3 cell lysates (Homo sapiens, UniProt P20594); settings: 10 uM; proteome PC3; peptide […]k[…]; labeling site Lys2
T1 construct: endogenous in cells; host or cells: HeLa and PC3 cell lysates

[2] = molecular target: T2, selected panels of kinases in HeLa and PC3 cell lysates (Homo sapiens, UniProt Q8IVH8); settings: 10 uM; proteome PC3; peptide […]kVIK; labeling site Lys1
T2 construct: endogenous in cells; host or cells: HeLa and PC3 cell lysates

[3] = molecular target: T3, selected panels of kinases in HeLa and PC3 cell lysates (Homo sapiens, UniProt P52564); settings: 10 uM
T3 construct: endogenous in cells; host or cells: HeLa and PC3 cell lysates
T3 sequence (P52564 1-334): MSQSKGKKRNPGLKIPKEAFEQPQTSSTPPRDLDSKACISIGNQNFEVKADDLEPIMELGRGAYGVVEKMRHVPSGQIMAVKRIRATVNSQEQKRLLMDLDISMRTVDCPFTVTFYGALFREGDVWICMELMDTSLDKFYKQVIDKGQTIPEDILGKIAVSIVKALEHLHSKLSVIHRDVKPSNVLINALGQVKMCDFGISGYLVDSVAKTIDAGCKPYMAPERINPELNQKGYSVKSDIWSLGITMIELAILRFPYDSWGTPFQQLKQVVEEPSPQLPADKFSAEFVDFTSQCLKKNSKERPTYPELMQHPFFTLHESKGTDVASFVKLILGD

[4] = molecular target: T4, selected panels of kinases in HeLa and PC3 cell lysates (Homo sapiens, UniProt P15735); settings: 10 uM; PHKg2; peptide ATGHEFAVkIMEVTAER; proteome PC3; labeling site Lys1
T4 construct: endogenous in cells; host or cells: HeLa and PC3 cell lysates

[5] = molecular target: T5, selected panels of kinases in HeLa and PC3 cell lysates (Homo sapiens, UniProt P43405); settings: 10 uM; SYK; peptide ISDFGLSkALR; proteome HEL; labeling site Activation Loop
T5 construct: endogenous in cells; host or cells: HeLa and PC3 cell lysates

[6] = molecular target: T6, selected panels of kinases in HeLa and PC3 cell lysates (Homo sapiens, UniProt P51812); settings: 10 uM; for % Inhibition RSK2 domain1: peptide LTDFGLSkESIDHEKK, labeling site Activation Loop
T6 construct: endogenous in cells; host or cells: HeLa and PC3 cell lysates

[7] = molecular target: T7, selected panels of kinases in HeLa and PC3 cell lysates (Homo sapiens, UniProt O94804); settings: 10 uM
T7 construct: endogenous in cells; host or cells: HeLa and PC3 cell lysates

[8] = molecular target: T8, selected panels of kinases in HeLa and PC3 cell lysates (Homo sapiens, UniProt Q9NYL2); settings: 10 uM, ZAK, peptide […]k, labeling site Lys1
T8 construct: endogenous in cells; host or cells: HeLa and PC3 cell lysates

[9] = molecular target: T9, selected panels of kinases in HeLa and PC3 cell lysates (Homo sapiens, UniProt Q9Y6E0); settings: 10 uM; proteome HEL; peptide DIk[…]; labeling site Lys2
T9 construct: endogenous in cells; host or cells: HeLa and PC3 cell lysates

[10] = molecular target: T10, selected panels of kinases in HeLa and PC3 cell lysates (Homo sapiens, UniProt O14936); settings: 10 uM; proteome PC3; peptide ETGQQFAVkIVDVAK; labeling site Lys1
T10 construct: endogenous in cells; host or cells: HeLa and PC3 cell lysates

[11] = molecular target: T11, selected panels of kinases in HeLa and PC3 cell lysates (Homo sapiens, UniProt P41240); settings: 10 uM, peptide VSDFGLTk[…], labeling site Activation Loop
T11 construct: endogenous in cells; host or cells: HeLa and PC3 cell lysates

[12] = molecular target: T12, selected panels of kinases in HeLa and PC3 cell lysates (Homo sapiens, UniProt P00533); settings: 10 uM, proteome PC3
T12 construct: endogenous in cells; host or cells: HeLa and PC3 cell lysates

[13] = molecular target: T13, selected panels of kinases in HeLa and PC3 cell lysates (Homo sapiens, UniProt P23458); settings: 10 uM, proteome HEL; for % Inhibiton, JAK1 domain1: peptide […]kNLLLAR, labeling site Other
T13 construct: endogenous in cells; host or cells: HeLa and PC3 cell lysates

[14] = molecular target: T14, selected panels of kinases in HeLa and PC3 cell lysates (Homo sapiens, UniProt Q14012); settings: 10 uM; proteome HEL; peptide LVAIkCIAK; labeling site Lys1
T14 construct: endogenous in cells; host or cells: HeLa and PC3 cell lysates

[15] = molecular target: T15, selected panels of kinases in HeLa and PC3 cell lysates (Homo sapiens, UniProt Q07912); settings: 10 uM; proteome HEL; peptide TVSVAVk[…]; labeling site Lys1
T15 construct: endogenous in cells; host or cells: HeLa and PC3 cell lysates

[16] = molecular target: T16, selected panels of kinases in HeLa and PC3 cell lysates (Homo sapiens, UniProt P42338); settings: 10 uM; PIK3CB; peptide […]k[…]; proteome PC3; labeling site ATP
T16 construct: endogenous in cells; host or cells: HeLa and PC3 cell lysates

[17] = molecular target: T17, selected panels of kinases in HeLa and PC3 cell lysates (Homo sapiens, UniProt P42680); settings: 10 uM; TEC; peptide […]kFPVK; proteome HEL; labeling site Activation Loop
T17 construct: endogenous in cells; host or cells: HeLa and PC3 cell lysates

[18] = proteome HEL, peptide DVk[…], labeling site Lys2
[19] = proteome PC3, peptide DVk[…], labeling site Lys2
[20] = proteome PC3, peptide […]kR, labeling site Lys1
[21] = peptide DLk[…], proteome PC3, labeling site Lys2
[22] = peptide Sk[…], proteome HEL, labeling site Protein Kinase Domain
[23] = peptide Sk[…], proteome PC3, labeling site Protein Kinase Domain
[24] = proteome HEL, peptide DLk[…], labeling site Lys2
[25] = proteome HEL, peptide […]kVIETK, labeling site Lys1
[26] = proteome PC3, peptide DLk[…], labeling site Lys2
[27] = proteome PC3, peptide […]kVIETK, labeling site Lys1
[28] = peptide IPVAIkELR, labeling site Lys1
[29] = peptide ITDFGLAkLLGAEEK, labeling site Activation Loop
[30] = peptide […]kVPIK, labeling site Activation Loop
[31] = peptide IGDFGLTk[…], labeling site Activation Loop
[32] = peptide […]k[…], labeling site Lys1

T6 sequence (P51812 whole entry, the tested form may be a part): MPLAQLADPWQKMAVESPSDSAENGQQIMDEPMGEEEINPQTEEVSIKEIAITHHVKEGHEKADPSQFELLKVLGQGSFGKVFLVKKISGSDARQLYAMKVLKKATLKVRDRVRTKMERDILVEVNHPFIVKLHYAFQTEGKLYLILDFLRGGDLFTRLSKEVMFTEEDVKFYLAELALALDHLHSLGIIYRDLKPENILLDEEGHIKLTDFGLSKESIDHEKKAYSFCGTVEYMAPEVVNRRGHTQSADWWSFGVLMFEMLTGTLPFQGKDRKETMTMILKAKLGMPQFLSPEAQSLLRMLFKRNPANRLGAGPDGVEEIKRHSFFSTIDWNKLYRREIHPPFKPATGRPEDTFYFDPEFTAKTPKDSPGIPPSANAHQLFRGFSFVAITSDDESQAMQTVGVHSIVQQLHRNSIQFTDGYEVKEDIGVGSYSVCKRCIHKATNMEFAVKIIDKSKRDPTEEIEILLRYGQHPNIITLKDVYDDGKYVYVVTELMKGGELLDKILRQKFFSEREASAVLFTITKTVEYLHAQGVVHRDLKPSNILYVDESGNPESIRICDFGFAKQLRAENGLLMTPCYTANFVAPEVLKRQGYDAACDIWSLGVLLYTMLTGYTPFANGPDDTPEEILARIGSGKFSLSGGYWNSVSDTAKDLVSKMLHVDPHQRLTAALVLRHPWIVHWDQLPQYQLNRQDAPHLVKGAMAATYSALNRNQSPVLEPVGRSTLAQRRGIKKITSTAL
T12 sequence (P00533 25-1210): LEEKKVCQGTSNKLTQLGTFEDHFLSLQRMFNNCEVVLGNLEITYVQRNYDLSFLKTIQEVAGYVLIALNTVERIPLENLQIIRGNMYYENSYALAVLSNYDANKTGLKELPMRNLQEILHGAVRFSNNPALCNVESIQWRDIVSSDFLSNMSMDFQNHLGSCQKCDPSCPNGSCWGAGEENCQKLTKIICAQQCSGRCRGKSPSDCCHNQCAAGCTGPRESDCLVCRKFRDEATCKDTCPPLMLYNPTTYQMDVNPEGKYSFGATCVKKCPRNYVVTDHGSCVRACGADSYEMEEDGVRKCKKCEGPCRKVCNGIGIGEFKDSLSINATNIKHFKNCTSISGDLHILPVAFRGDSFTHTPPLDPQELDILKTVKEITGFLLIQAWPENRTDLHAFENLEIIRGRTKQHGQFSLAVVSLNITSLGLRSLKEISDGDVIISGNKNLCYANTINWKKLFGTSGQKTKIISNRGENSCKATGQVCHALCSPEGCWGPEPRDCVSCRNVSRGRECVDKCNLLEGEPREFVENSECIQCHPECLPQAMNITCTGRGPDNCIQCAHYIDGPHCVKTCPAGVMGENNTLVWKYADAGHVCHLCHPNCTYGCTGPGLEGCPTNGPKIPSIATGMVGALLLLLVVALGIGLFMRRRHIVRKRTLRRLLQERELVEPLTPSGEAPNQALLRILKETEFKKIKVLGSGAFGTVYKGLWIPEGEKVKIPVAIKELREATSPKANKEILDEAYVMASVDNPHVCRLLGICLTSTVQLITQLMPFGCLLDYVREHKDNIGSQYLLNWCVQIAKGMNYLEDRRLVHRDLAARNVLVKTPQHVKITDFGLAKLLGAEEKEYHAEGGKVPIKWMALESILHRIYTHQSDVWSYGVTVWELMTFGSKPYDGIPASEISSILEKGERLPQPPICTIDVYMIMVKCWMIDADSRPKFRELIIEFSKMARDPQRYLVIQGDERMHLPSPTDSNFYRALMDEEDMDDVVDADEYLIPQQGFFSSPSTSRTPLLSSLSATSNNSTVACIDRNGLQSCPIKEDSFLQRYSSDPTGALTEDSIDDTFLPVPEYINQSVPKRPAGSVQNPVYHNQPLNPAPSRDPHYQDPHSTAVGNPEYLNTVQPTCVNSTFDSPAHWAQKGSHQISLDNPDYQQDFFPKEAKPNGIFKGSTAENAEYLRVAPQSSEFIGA
T7 sequence (O94804 whole entry): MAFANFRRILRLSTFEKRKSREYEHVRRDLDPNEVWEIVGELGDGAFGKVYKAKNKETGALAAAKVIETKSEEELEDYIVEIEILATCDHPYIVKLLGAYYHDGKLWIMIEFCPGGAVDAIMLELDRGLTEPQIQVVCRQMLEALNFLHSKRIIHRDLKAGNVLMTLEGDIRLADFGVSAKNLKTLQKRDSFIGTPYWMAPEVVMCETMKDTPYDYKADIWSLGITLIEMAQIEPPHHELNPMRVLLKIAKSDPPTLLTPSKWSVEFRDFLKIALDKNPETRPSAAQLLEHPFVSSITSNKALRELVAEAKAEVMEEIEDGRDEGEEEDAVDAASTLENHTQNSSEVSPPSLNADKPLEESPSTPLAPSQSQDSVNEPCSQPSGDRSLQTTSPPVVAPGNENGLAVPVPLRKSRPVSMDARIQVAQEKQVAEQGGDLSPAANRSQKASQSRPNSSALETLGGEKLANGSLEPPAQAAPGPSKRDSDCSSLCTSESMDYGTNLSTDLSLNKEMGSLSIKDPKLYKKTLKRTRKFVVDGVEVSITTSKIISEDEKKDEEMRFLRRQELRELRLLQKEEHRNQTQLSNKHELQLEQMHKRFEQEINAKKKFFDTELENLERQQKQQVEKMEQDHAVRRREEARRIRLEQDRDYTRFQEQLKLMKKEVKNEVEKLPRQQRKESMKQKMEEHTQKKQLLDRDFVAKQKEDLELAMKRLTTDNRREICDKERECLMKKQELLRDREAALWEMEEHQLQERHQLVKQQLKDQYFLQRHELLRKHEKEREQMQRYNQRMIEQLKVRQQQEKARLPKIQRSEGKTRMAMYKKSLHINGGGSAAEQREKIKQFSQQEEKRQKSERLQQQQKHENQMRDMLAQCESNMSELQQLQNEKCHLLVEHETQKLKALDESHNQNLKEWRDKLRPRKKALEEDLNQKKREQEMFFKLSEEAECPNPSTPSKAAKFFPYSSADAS
T13 sequence (P23458 whole entry, the tested form may be a part): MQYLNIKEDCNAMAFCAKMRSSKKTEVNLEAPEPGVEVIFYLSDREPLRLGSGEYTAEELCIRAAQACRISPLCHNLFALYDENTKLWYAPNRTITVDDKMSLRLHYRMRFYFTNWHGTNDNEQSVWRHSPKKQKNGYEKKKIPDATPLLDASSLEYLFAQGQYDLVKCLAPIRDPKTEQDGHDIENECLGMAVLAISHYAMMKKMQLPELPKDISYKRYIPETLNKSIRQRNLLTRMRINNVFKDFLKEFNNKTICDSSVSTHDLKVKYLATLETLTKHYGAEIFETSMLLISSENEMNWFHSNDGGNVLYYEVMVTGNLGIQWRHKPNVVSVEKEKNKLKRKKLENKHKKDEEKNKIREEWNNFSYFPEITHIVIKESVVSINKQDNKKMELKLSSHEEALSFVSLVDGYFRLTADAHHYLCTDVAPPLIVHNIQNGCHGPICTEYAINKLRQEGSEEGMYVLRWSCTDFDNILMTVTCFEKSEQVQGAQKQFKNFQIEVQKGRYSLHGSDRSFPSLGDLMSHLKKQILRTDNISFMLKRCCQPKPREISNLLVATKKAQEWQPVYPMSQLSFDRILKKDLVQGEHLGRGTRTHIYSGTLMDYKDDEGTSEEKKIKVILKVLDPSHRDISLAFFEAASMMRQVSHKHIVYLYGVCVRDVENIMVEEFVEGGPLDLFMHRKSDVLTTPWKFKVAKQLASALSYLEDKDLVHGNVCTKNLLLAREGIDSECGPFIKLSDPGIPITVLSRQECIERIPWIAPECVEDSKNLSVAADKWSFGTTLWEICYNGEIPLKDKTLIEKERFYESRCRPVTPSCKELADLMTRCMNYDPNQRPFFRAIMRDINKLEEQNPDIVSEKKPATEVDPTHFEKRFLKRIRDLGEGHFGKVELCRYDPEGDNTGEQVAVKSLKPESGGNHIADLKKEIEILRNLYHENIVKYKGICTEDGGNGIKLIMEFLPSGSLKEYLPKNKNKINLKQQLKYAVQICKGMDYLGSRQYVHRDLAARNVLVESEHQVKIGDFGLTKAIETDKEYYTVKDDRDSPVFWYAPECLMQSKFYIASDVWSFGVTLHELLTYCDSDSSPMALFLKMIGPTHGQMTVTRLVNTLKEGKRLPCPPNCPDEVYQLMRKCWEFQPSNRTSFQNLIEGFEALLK
T8 sequence (Q9NYL2 whole entry): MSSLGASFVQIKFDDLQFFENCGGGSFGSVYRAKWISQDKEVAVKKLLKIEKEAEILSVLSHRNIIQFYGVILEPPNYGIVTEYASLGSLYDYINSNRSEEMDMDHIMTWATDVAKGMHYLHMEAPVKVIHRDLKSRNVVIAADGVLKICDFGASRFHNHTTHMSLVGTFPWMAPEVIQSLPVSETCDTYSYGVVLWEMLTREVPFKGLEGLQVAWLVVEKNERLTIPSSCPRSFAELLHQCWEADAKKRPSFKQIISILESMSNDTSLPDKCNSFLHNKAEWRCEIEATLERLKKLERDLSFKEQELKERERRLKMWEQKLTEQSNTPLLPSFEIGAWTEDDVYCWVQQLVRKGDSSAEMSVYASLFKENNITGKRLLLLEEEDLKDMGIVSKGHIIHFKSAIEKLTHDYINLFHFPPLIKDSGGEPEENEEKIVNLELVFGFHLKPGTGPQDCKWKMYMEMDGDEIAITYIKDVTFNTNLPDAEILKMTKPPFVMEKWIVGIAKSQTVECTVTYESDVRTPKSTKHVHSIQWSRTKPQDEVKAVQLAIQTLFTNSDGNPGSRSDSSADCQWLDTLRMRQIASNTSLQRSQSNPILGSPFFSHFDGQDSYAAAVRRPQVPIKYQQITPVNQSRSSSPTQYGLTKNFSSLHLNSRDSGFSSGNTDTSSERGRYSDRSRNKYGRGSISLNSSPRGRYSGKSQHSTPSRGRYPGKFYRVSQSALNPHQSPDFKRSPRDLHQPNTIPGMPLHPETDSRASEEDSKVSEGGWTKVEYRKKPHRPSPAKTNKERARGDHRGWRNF

Structure (SMILES) | % Inhibiton, ANPb [1] | % Inhibiton, KHS2 [2] | % Inhibiton, MAP2K6 [3, 18] | % Inhibiton, MAP2K6 [3, 19] | % Inhibiton, MAP2K6 [3, 20] | % Inhibition PHKg2 [4] | % Inhibition SYK [5] | % Inhibition RSK2 domain1 ([6]; proteome HEL) | % Inhibition RSK2 domain2 [6, 21] | % Inhibition RSK2 domain2 [6, 22] | % Inhibition RSK2 domain2 [6, 23] | % Inhibiton, LOK [7, 24] | % Inhibiton, LOK [7, 25] | % Inhibiton, LOK [7, 26] | % Inhibiton, LOK [7, 27] | % Inhibition ZAK ([8]; proteome HEL) | % Inhibition ZAK ([8]; proteome PC3) | % Inhibiton, MST3 [9] | % Inhibiton, CASK [10] | % Inhibiton, CSK ([11]; proteome HEL) | other results
CCOc1cc(C(=O)N2CCC(N3CCN(C)CC3)CC2)ccc1Nc1ncc2c(n1)N(C1CCCC1)c1ccccc1C(=O)N2C [Compound 26] | 24.3% | -3.3% | -4.3% | -9.9% | -2.3% | -3.8% | -0.8% | 7.2% | -0.5% | 7.4% | -14.6% | -13% | 24.4% | 11.4% | 10% | 13.4% | -25.5% | 9.7% | -36.1% | 14.3% | % Inhibiton, CSK ([11]; proteome PC3): -6.9%; % Inhibiton, EGFR [12, 28]: -3.3%; % Inhibiton, EGFR [12, 29]: -5.7%; % Inhibiton, EGFR [12, 30]: -8.1%; % Inhibiton, JAK1 domain2 [13, 31]: 6.3%; % Inhibiton, JAK1 domain1 [13]: 24.2%; % Inhibiton, JAK1 domain2 [13, 32]: 32.1%; % Inhibiton, CaMK1a [14]: 36%; % Inhibiton, ACK [15]: 20.1%; % Inhibition PIK3CB [16]: -124.1%; % Inhibition TEC [17]: 5.8%
COc1cc(C(=O)N2CCC(N3CCN(C)CC3)CC2)ccc1Nc1ncc2c(n1)N(C1CCCC1)c1ccccc1C(=O)N2C [Compound 25, 11-cyclopentyl-2-((2-methoxy-4-(4-(4-methylpiperazin-1-yl)piperidine-1-carbonyl)phenyl)amino)-5-methyl-5H-benzo[e]pyrimido[5,4-b][1,4]diazepin-6(11H)-one] | -11.4% | -4.9% | 14.2% | -3.9% | 12.8% | 8.1% | 5.7% | 1.2% | -4.3% | 1.3% | 1.9% | 3.2% | 2.1% | 8.0% | 1.9% | -6.6% | -9.3% | 7.3% | -0.2% | 6.5% | % Inhibiton, CSK ([11]; proteome PC3): -4.8%; % Inhibiton, EGFR [12, 28]: -6.4%; % Inhibiton, EGFR [12, 29]: -31.1%; % Inhibiton, EGFR [12, 30]: -10.1%; % Inhibiton, JAK1 domain2 [13, 31]: 5.1%; % Inhibiton, JAK1 domain1 [13]: 3.2%; % Inhibiton, JAK1 domain2 [13, 32]: 4.8%; % Inhibiton, CaMK1a [14]: 19.1%; % Inhibiton, ACK [15]: 43.5%; % Inhibition PIK3CB [16]: 0.8%; % Inhibition TEC [17]: 8.9%
